Patent publication US12433865B2, “Compositions comprising PGI2-receptor agonists and processes for the preparation thereof” (Arena Pharmaceuticals, Inc., priority 2018, dated 2025)

Experiments:
[1] = Release (dissolution) profile of tablets, USP Apparatus 1 (baskets); assay type: physicochemical; settings: for mean value (n = 6) of % of Compound 1 released: tablet, 25 mg Methocel K100 Premium LVCR
From the text: USP Apparatus 1 (BASKETS) is described, for example, in the United States Pharmacopeial Convention, Feb. 1, 2012, Chapter <711> (“Dissolution”), incorporated by reference herein in its entirety. See http://www.usp.org/sites/default/files/usp_pdf/EN/USPNF/revisions/m99470-gc_711.pdf. The USP Apparatus 1 (baskets) assembly consists of the following: a vessel, which may be covered, made of glass or other inert, transparent material; a motor; a metallic drive shaft; and a cylindrical basket. The materials should not sorb, react, or interfere with the specimen being tested. The vessel is partially immersed in a suitable water bath of any convenient size or heated by a suitable device such as a heating jacket. The water bath or heating device permits holding the temperature inside the vessel at 37±0.5° during the test and keeping the bath fluid in constant, smooth motion. No part of the assembly, including the environment in which the assembly is placed, contributes significant motion, agitation, or vibration beyond that due to the smoothly rotating stirring element. An apparatus that permits observation of the specimen and stirring element during the test is preferable. The vessel is cylindrical, with a hemispherical bottom and with one of the following dimensions and capacities: for a nominal capacity of 1 L, the height is 160 mm to 210 mm and its inside diameter is 98 mm to 106 mm; for a nominal capacity of 2 L, the height is 280 mm to 300 mm and its inside diameter is 98 mm to 106 mm; and for a nominal capacity of 4 L, the height is 280 mm to 300 mm and its inside diameter is 145 mm to 155 mm. Its sides are flanged at the top. A fitted cover may be used to retard evaporation. If a cover is used, it provides sufficient openings to allow ready insertion of the thermometer and withdrawal of specimens. The shaft is positioned so that its axis is not more than 2 mm at any point from the vertical axis of the vessel and rotates smoothly and without significant wobble that could affect the results. The vertical center line of the blade passes through the axis of the shaft so that the bottom of the blade is flush with the bottom of the shaft. A distance of 25 f 2 mm between the bottom of the blade and the inside bottom of the vessel is maintained during the test. The metallic or suitably inert, rigid blade and shaft comprise a single entity. A suitable two-part detachable design may be used provided the assembly remains firmly engaged during the test.
A speed-regulating device is used that allows the shaft rotation speed to be selected and maintained at the specified rate within +4%. Shaft and basket components of the stirring element are fabricated of stainless steel, type 316, or other inert material. A basket having a gold coating of about 0.0001 inch (2.5 μm) thick may be used. A dosage unit is placed in a dry basket at the beginning of each test. The distance between the inside bottom of the vessel and the bottom of the basket is maintained at 25±2 mm during the test.
The release profiles for modified-release tablets were measured using USP Apparatus 1 (baskets).
All release profiles disclosed in Tables 6a-6d were measured with USP Apparatus 1 (baskets) at 100 rpm in 500 mL of aqueous sodium phosphate at a concentration of 0.05 M (pH=6.8). The values in a given table relate to tablets obtained from the same batch. Values shown represent mean values over a number of dissolution tests (“n” in each table) in each case.

[2] = Open-label, fixed sequence single-dose pharmacokinetic study in healthy subjects (Example 7 A); assay type: in vivo, human
Protocol: A. An open-label, fixed sequence, non-randomized study in two cohorts of healthy male and non-pregnant, non-lactating female subjects was conducted. Two cohorts with twelve subjects in each were enrolled to ensure data in ten evaluable subjects per cohort.
Each subject in Cohort 1 received each of the following regimens, in the fasted state, in a sequential manner over four treatment periods: • Regimen A (0.03 mg immediate-release Compound 1): 1×0.03 mg Compound 1 immediate-release capsule. • Regimen B (0.06 mg modified-release Compound 1): 1×0.06 mg Compound 1 modified-release tablet as disclosed herein. • Regimen C (0.12 mg modified-release Compound 1): 2×0.06 mg Compound 1 modified-release tablets as disclosed herein. • Regimen D (0.18 mg modified-release Compound 1) 3×0.06 mg Compound 1 modified-release tablets as disclosed herein.
Subjects received each regimen in the morning of Day 1, following an overnight fast of a minimum of 8 hours. PK samples were taken from subjects at 72 hours post-dose. There was a minimum washout period of 7 days between each administration of investigational medicinal product (IMP) (i.e., selexipag film-coated tablet(s), Compound 1 immediate-release capsule(s), and/or Compound 1 modified-release tablet(s)).
For Cohort 1, subjects received Regimens […] in a sequential manner at consecutive treatment periods.
Venous blood samples were withdrawn at regular time intervals. Plasma concentration data for Compound 1 and the selexipag parent and active metabolite were analyzed using appropriate non-compartmental techniques to obtain estimates of one or more of the following parameters: • Tlag • Tmax • Cmax • C12 • C24 • AUC(0-last) • AUC(0-inf) • AUC % extrap • lambda-z • T1/2e1 • CL/F • Frel: relative bioavailability of 0.06 mg Compound 1 tablets compared to the reference 0.03 mg Compound 1 capsule Pharmacodynamic Assessments:
One or more of the above pharmacokinetic parameters were determined at one or more of the following time points: pre-dose and (referring to hours after administration): 0.5, 1, 1.5, 2, 3, 4, 5, 6, 8, 10, 12, 16, 20, 24, 36, 48, and 72 hours.

[3] = 0.06-0.18 mg modified-release tablets vs 0.03 mg immediate-release capsule
[4] = single oral dose, fasted healthy subjects

O=C(O)COC[C@H]1CC[C@H](COC(=O)N(c2ccccc2)c2ccc(Cl)cc2)CC1 [Compound 1, 2-(((1r,4r)-4-(((4-chlorophenyl)(phenyl)carbamoyloxy)methyl)cyclohexyl)methoxy)acetic acid]
release rate of tablets relative to modified-release capsule ([1]; 0.5 mg tablet with 40% HPMC K4M CR): faster | mean value (n = 6) of % of Compound 1 released ([1]; Table 6a: initial release profile, 0.05 mg Compound 1, 25 mg Methocel K4M Premium CR, 60 min): 6.9% | mean value (n = 6) of % of Compound 1 released ([1]; Table 6a: initial release profile, 0.05 mg Compound 1, 25 mg Methocel K4M Premium CR, 120 min): 25.3% | mean value (n = 6) of % of Compound 1 released ([1]; Table 6a: initial release profile, 0.05 mg Compound 1, 25 mg Methocel K4M Premium CR, 180 min): 35.8% | mean value (n = 6) of % of Compound 1 released ([1]; Table 6a: initial release profile, 0.05 mg Compound 1, 25 mg Methocel K4M Premium CR, 240 min): 45.1% | mean value (n = 6) of % of Compound 1 released ([1]; Table 6a: initial release profile, 0.05 mg Compound 1, 25 mg Methocel K4M Premium CR, 360 min): 62% | mean value (n = 6) of % of Compound 1 released ([1]; Table 6a: initial release profile, 0.05 mg Compound 1, 25 mg Methocel K4M Premium CR, 480 min): 74.8% | mean value (n = 6) of % of Compound 1 released ([1]; Table 6a: initial release profile, 0.05 mg Compound 1, 25 mg Methocel K4M Premium CR, 600 min): 86.6% | mean value (n = 6) of % of Compound 1 released ([1]; Table 6a: initial release profile, 0.05 mg Compound 1, 25 mg Methocel K4M Premium CR, 840 min): 100.4% | mean value (n = 6) of % of Compound 1 released ([1]; Table 6b: initial release profile, 0.5 mg Compound 1, 25 mg Methocel K4M Premium CR, 60 min): 17.9% | mean value (n = 6) of % of Compound 1 released ([1]; Table 6b: initial release profile, 0.5 mg Compound 1, 25 mg Methocel K4M Premium CR, 120 min): 27.3% | mean value (n = 6) of % of Compound 1 released ([1]; Table 6b: initial release profile, 0.5 mg Compound 1, 25 mg Methocel K4M Premium CR, 180 min): 36.9% | mean value (n = 6) of % of Compound 1 released ([1]; Table 6b: initial release profile, 0.5 mg Compound 1, 25 mg Methocel K4M Premium CR, 240 min): 45.5% | mean value (n = 6) of % of Compound 1 released ([1]; Table 6b: initial release profile, 0.5 mg Compound 1, 25 mg Methocel K4M Premium CR, 360 min): 61.1% | mean value (n = 6) of % of Compound 1 released ([1]; Table 6b: initial release profile, 0.5 mg Compound 1, 25 mg Methocel K4M Premium CR, 480 min): 74.2% | mean value (n = 6) of % of Compound 1 released ([1]; Table 6b: initial release profile, 0.5 mg Compound 1, 25 mg Methocel K4M Premium CR, 600 min): 84.8% | mean value (n = 6) of % of Compound 1 released ([1]; Table 6b: initial release profile, 0.5 mg Compound 1, 25 mg Methocel K4M Premium CR, 840 min): 98.1% | mean value (n = 6) of % of Compound 1 released ([1]; Table 6c: after storage at 40° C. and 75% RH for 6 months, 0.05 mg Compound 1, 25 mg Methocel K4M Premium CR, 60 min): 17% | mean value (n = 6) of % of Compound 1 released ([1]; Table 6c: after storage at 40° C. and 75% RH for 6 months, 0.05 mg Compound 1, 25 mg Methocel K4M Premium CR, 120 min): 27.1% | mean value (n = 6) of % of Compound 1 released ([1]; Table 6c: after storage at 40° C. and 75% RH for 6 months, 0.05 mg Compound 1, 25 mg Methocel K4M Premium CR, 180 min): 36.9% | mean value (n = 6) of % of Compound 1 released ([1]; Table 6c: after storage at 40° C. and 75% RH for 6 months, 0.05 mg Compound 1, 25 mg Methocel K4M Premium CR, 240 min): 45.4% | mean value (n = 6) of % of Compound 1 released ([1]; Table 6c: after storage at 40° C. and 75% RH for 6 months, 0.05 mg Compound 1, 25 mg Methocel K4M Premium CR, 360 min): 61.1% | mean value (n = 6) of % of Compound 1 released ([1]; Table 6c: after storage at 40° C. and 75% RH for 6 months, 0.05 mg Compound 1, 25 mg Methocel K4M Premium CR, 480 min): 75.8% | mean value (n = 6) of % of Compound 1 released ([1]; Table 6c: after storage at 40° C. and 75% RH for 6 months, 0.05 mg Compound 1, 25 mg Methocel K4M Premium CR, 600 min): 86.9% | mean value (n = 6) of % of Compound 1 released ([1]; Table 6c: after storage at 40° C. and 75% RH for 6 months, 0.05 mg Compound 1, 25 mg Methocel K4M Premium CR, 840 min): 100% | mean value (n = 6) of % of Compound 1 released ([1]; Table 6d: after storage at 40° C. and 75% RH for 6 months, 0.5 mg Compound 1, 25 mg Methocel K4M Premium CR, 60 min): 6.8% | mean value (n = 6) of % of Compound 1 released ([1]; Table 6d: after storage at 40° C. and 75% RH for 6 months, 0.5 mg Compound 1, 25 mg Methocel K4M Premium CR, 120 min): 24.3% | mean value (n = 6) of % of Compound 1 released ([1]; Table 6d: after storage at 40° C. and 75% RH for 6 months, 0.5 mg Compound 1, 25 mg Methocel K4M Premium CR, 180 min): 33% | mean value (n = 6) of % of Compound 1 released ([1]; Table 6d: after storage at 40° C. and 75% RH for 6 months, 0.5 mg Compound 1, 25 mg Methocel K4M Premium CR, 240 min): 41.3% | mean value (n = 6) of % of Compound 1 released ([1]; Table 6d: after storage at 40° C. and 75% RH for 6 months, 0.5 mg Compound 1, 25 mg Methocel K4M Premium CR, 360 min): 55.5% | mean value (n = 6) of % of Compound 1 released ([1]; Table 6d: after storage at 40° C. and 75% RH for 6 months, 0.5 mg Compound 1, 25 mg Methocel K4M Premium CR, 480 min): 67.9% | mean value (n = 6) of % of Compound 1 released ([1]; Table 6d: after storage at 40° C. and 75% RH for 6 months, 0.5 mg Compound 1, 25 mg Methocel K4M Premium CR, 600 min): 79.4% | mean value (n = 6) of % of Compound 1 released ([1]; Table 6d: after storage at 40° C. and 75% RH for 6 months, 0.5 mg Compound 1, 25 mg Methocel K4M Premium CR, 840 min): 94.7% | change of release profile following storage over time ([1]; modified-release tablets (FIGS. 12-14), storage at 40° C. and 75% RH for six months): did not change significantly | release rate of tablets relative to modified-release capsule ([1]; tablet with 30% HPMC K4M and 20% HPMC K100 LVCR): slightly faster | release rate of tablets relative to modified-release capsule ([1]; tablet with 40% HPMC K4M and 10% HPMC K100 LVCR, time points <6 hrs): faster | release rate of tablets relative to modified-release capsule ([1]; tablet with 40% HPMC K4M and 10% HPMC K100 LVCR, time points ≥6 hrs): slower | difference of percentage by weight of compound released, initial vs after storage ([1]; tablets 0.05 mg and 0.5 mg (FIGS. 12 and 13), storage at 40° C. and 75% RH for six months, any time point equal to or greater than 2 hours): ≤ 10% | dose-adjusted total exposure (AUC(0-last)) compared to 0.03 mg immediate release capsule ([2]; 0.18 mg modified-release tablet): similar | relative bioavailability based on individual dose-adjusted Cmax vs immediate-release capsule ([2]; 0.06, 0.12 and 0.18 mg modified-release tablet): statistically significantly lower | dose-adjusted peak plasma exposure (Cmax/D), geometric mean ratios modified-release vs immediate-release [2, 3]: 28.7-41.2% | dose-adjusted total plasma exposure (AUC/D), geometric mean ratios modified-release vs immediate-release [2, 3]: 63.3-97.9% | relative bioavailability based on individual dose-adjusted AUC(0-last) vs immediate-release capsule ([2]; 0.06 and 0.12 mg modified-release tablet): statistically significantly lower | half-life ([2]; both sexes, human, plasma, oral, modified-release tablets, across all dose levels (0.06, 0.12, 0.18 mg), read-out: geometric mean half-life): 19 to 23 h | Tmax ([2]; both sexes, human, plasma, single oral administration of 0.06, 0.12 and 0.18 mg modified-release tablets, read-out: median Tmax): 4 to 10 h | plasma concentrations at 24 hours post-dose compared to immediate-release formulation ([2]; modified-release tablet formulation): higher | increase of systemic exposure (Cmax and AUC) with dose ([2]; oral modified-release tablet formulation): slightly higher than dose-proportional | Cmax, modified-release tablet vs immediate-release capsule [2, 4]: reduced | Tmax, modified-release tablet vs immediate-release capsule [2, 4]: increased | total plasma concentrations, modified-release tablet vs immediate-release capsule [2, 4]: similar
